Measurements published in patent publication EP4563149A1, “LURBINECTEDIN, ECUBECTEDIN AND A RELATED COMPOUND FOR USE IN THE TREATMENT OF SKIN CANCERS” (Pharma Mar, S.A., priority 2023, dated 2025).
Like-named read-outs stand apart in the source and are kept apart here.

Assays:
melanoma cells [1] = assay: Apoptosis by flow cytometry (AnnexinV-APC); type: cell-based, human; settings: IC50 concentrations, Annexin V-APC
Protocol: (§1) After 48h of incubation, cells were rinsed and incubated with AnnexinV-APC (BD Biosciences). Cell proliferation and apoptosis were detected on a BD LSRFortessaTM Flow Cytometer. Data were analyzed with FlowJo software. To define slow proliferating or apoptotic cells: it was considered that slow proliferating cells represented the 30% of cells with the highest concentration of CellTrace Violet signal in the DMSO control. […] For apoptotic cells, it was considered the 20% of cells with the highest signal of AnnexinV-APC in the DMSO control.

MM074^VemuR = assay: Cell viability assay (PrestoBlue), 72h; settings: Homo sapiens
Protocol: Cells were grown at 37°C in 5% CO2 (10% for Hermes 3A) and were regularly checked for mycoplasma contamination. MM patient-derived short-term melanoma cultures (MM011, MM074, MM117, MM029, MM047, MM099) were grown in HAM-F10 (Gibco, Invitrogen) supplemented with 10% Fetal Calf Serum (FCS), 25 mM HEPES, 5.2 mM GLUTAMAX and penicillin-streptomycin. Melanoma cell lines 501mel and SKmel28 were grown in RPMI w/o HEPES (Gibco, Invitrogen) supplemented with 10% FCS and gentamycin. Vemurafenib-resistant cells (501melVemuR and MM074VemuR) were additionally supplemented with 1.5 µM of vemurafenib. Melanoma IGR cell lines (IGR37 and IGR39) were grown in RPMI w/o HEPES (Gibco, Invitrogen) supplemented with 15% FCS and gentamycin.
(§7) To determine the IC50 (half maximal inhibitory concentration) of these cells to various inhibitors, cell viability assays were performed.
(§8) After 72h of treatment with different concentrations of the compounds, cells were treated with PrestoBlue reagent according to the manufacturer's instructions. The absorbance per well was measured with a Cellinsight CX5 microplate reader. Data were analyzed using Prism9 statistical software.

[2] = tested on: IGR-37 melanoma xenografts; settings: 1.2 mg/kg intravenous
Protocol: (§2) Female athymic nu/nu mice (Harlan Laboratories Models, S.L. Barcelona, Spain or Envigo, Spain) were utilized for all experiments. Animal were housed in individually ventilated cages Sealsafe® Plus, Techmplast S.P.A.), up to ten per cage on a 12-hour light-dark cycle at 21-23 °C and 40-60 % humidity. Mice were allowed free access to irradiated standard rodent diet (Tecklad 2914C) and sterilized water. Animals were acclimated for at least 5 days prior to tumor implantation with a tumor cell suspension.
(§3) The cell line used are: • 501mel • IGR-37 • SK-Mel-28 • WM-266-4 • LOX-IMVI • 501mel^Vemur
(§4) In xenograft studies with cell lines: • Tumour volume was calculated using the equation […], where a: length (longest diameter) and b: width (shortest diameter) were measured in mm by using digital caliper (Fowler Sylvac, S235PAT). Tumour dimensions and body weights were recorded 2-3 times per week starting from the first day of treatment. • When tumors reached ca. 150-250 mm^3, tumour bearing animals (N = 8-10/group) were randomly allocated into the treatment groups, based on body weight and tumour measurements by using NewLab Oncology Software (version 2.25.06.00). • Comparison between median tumour volume of treated and placebo groups was used for evaluation of the antitumoural efficacy. • Animals were euthanized when their tumours reached ca. 1,500 mm^3 and/or severe necrosis was seen.
(§5) Treatments producing >20 % lethality and/or 20% net body weight loss were considered toxic.
(§6) In these experiments, PM14 and Compound IA, as well as placebo, were intravenously administered once per week for 3 consecutive weeks, on days 0, 7 and 14, whenever it was possible.
Table 5. Tumour volume evaluation in IGR-37 melanoma xenografts with PM14 and Compound IA and placebo.

MM099 = assay: Cell viability assay (PrestoBlue), 72h; settings: Homo sapiens
Protocol: (§9) Cells were grown at 37°C in 5% CO2 (10% for Hermes 3A) and were regularly checked for mycoplasma contamination. […] Melanoma IGR cell lines (IGR37 and IGR39) were grown in RPMI w/o HEPES (Gibco, Invitrogen) supplemented with 15% FCS and gentamycin.
as §7, §8

[3] = tested on: melanoma cell cultures or cell lines; assay: Clonogenic assay; type: cell-based, human; settings: 48h at IC50 concentrations, then 10 days without drug
Protocol: Based on the cell viability assays conducted above, the efficacy of lurbinectedin, PM14 or Compound IA on melanoma cell proliferation was investigated. Initially, a clonogenic assay was performed. Cells were drug-treated at IC50 concentrations during 48h before seeding 1×10^3 or 2×10^3 cells in 6-well plates without drug, wherein they grew for 10 days to allow for colony formation. Afterwards, cells were fixed for 10min with 4% formaldehyde solution, washed once with PBS and stained with Crystal Violet solution 0.2% for 15 min. The wells were finally washed twice with deionized water, air dried, scanned and analyzed with Fiji software to count the number of colonies.

[4] = tested on: xenografts with various melanoma cell lines; settings: different xenografts, 1.2 mg/kg intravenous once per week for 3 weeks
Protocol: as §2, §3
as §4, with “seen. […]” for “seen.”

[5] = tested on: RPB1 (RNA pol II elongation subunit); assay: Immunoblotting of RPB1 in 501mel; type: cell-based, human; settings: 24h at 5×IC50
Protocol: Cells were washed once with cold PBS, rinsed with a cell scraper, pelleted and resuspended in LSDB 0.5M buffer (0.5M KCI, 50mM Tris HCl pH 7.9, 20% Glycerol, 1% NP40, 1mM DTT, PIC). Afterwards cells were fully disrupted with 3 cycles of heat shock in liquid nitrogen and 37°C water bath and centrifugated 15min at 14,000rpm to pellet cell debris. Ten micrograms of extract were loaded on SDS-PAGE before transfer to nitro-cellulose membranes and immunoblotting.

501 mel^Vemur cell line = settings: 1.2 mg/kg intravenous
Protocol: as §2, §3, §4, §5, §6

melanoma cells [6] = assay: Cell proliferation by CellTrace Violet flow cytometry; type: cell-based, human; settings: IC50 concentrations, compared to DMSO
Protocol: as §1

[7] = tested on: LOX-IMVI melanoma xenografts; settings: 1.2 mg/kg intravenous
Protocol: as §2, §3, §4, §5, §6
Tumour volume evaluation in LOX-IMVI melanoma xenografts with PM14 and Compound IA and placebo.

[8] = tested on: 501mel melanoma xenografts; settings: 1.2 mg/kg intravenous
Protocol: as §2, §3, §4, §5, §6
Table 4. Tumour volume evaluation in 501mel melanoma xenografts with PM14 and Compound IA and placebo.

IGR37 = assay: Cell viability assay (PrestoBlue), 72h, last line of Table 2; settings: Homo sapiens, IGR-37, 72 h
Protocol: as §9, §7, §8

COc1c(C)cc2c(c1O)[C@@H]1[C@@H]3[C@@H]4SC[C@]5(N[C@H](CO)Cc6c5oc5ccccc65)C(=O)OC[C@@H](c5c6c(c(C)c(OC(C)=O)c54)OCO6)N3[C@@H](O)[C@H](C2)N1C [Compound IA]
apoptosis (melanoma cells [1]): induction of apoptosis | IC50 (MM074^VemuR): 3.08 nM | Median Tumour Volume ([2]; days 0, 7 and 14, day 0): 150 mm^3 | Median Tumour Volume ([2]; days 0, 7 and 14, day 2): 236.5 mm^3 | Median Tumour Volume ([2]; days 0, 7 and 14, day 4): 377.5 mm^3 | Median Tumour Volume ([2]; days 0, 7 and 14, day 7): 608 mm^3 | Median Tumour Volume ([2]; days 0, 7 and 14, day 9): 886.9 mm^3 | Median Tumour Volume ([2]; days 0, 7 and 14, day 14): 1,163.9 mm^3 | Median Tumour Volume ([2]; days 0, 7 and 14, day 16): 936.5 mm^3 | Median Tumour Volume ([2]; days 0, 7 and 14, day 18): 1,027.6 mm^3 | IC50 (MM099): 1.85 nM | colony formation (number of colonies) [3]: significant impact | tumor volume compared to the placebo [4]: reduction of the volume tumor | RPB1 (RNA pol II elongation subunit) degradation [5]: pronounced | Median Tumour Volume (501 mel^Vemur cell line; days 0, 7 and 14, day 0): 160.3 mm^3 | Median Tumour Volume (501 mel^Vemur cell line; days 0, 7 and 14, day 2): 249 mm^3 | Median Tumour Volume (501 mel^Vemur cell line; days 0, 7 and 14, day 4): 306.8 mm^3 | Median Tumour Volume (501 mel^Vemur cell line; days 0, 7 and 14, day 7): 378.8 mm^3 | Median Tumour Volume (501 mel^Vemur cell line; days 0, 7 and 14, day 9): 417.2 mm^3 | Median Tumour Volume (501 mel^Vemur cell line; days 0, 7 and 14, day 11): 453.7 mm^3 | Median Tumour Volume (501 mel^Vemur cell line; days 0, 7 and 14, day 14): 490.8 mm^3 | Median Tumour Volume (501 mel^Vemur cell line; days 0, 7 and 14, day 16): 517.4 mm^3 | Median Tumour Volume (501 mel^Vemur cell line; days 0, 7 and 14, day 18): 572.1 mm^3 | Median Tumour Volume (501 mel^Vemur cell line; days 0, 7 and 14, day 21): 666.9 mm^3 | Median Tumour Volume (501 mel^Vemur cell line; days 0, 7 and 14, day 23): 703.5 mm^3 | Median Tumour Volume (501 mel^Vemur cell line; days 0, 7 and 14, day 25): 739.3 mm^3 | Median Tumour Volume (501 mel^Vemur cell line; days 0, 7 and 14, day 28): 861.2 mm^3 | Median Tumour Volume (501 mel^Vemur cell line; days 0, 7 and 14, day 30): 986.4 mm^3 | Median Tumour Volume (501 mel^Vemur cell line; days 0, 7 and 14, day 35): 997.4 mm^3 | Median Tumour Volume (501 mel^Vemur cell line; days 0, 7 and 14, day 42): 900.1 mm^3 | Median Tumour Volume (501 mel^Vemur cell line; days 0, 7 and 14, day 44): 982.3 mm^3 | Median Tumour Volume (501 mel^Vemur cell line; days 0, 7 and 14, day 46): 1080 mm^3 | Median Tumour Volume (501 mel^Vemur cell line; days 0, 7 and 14, day 49): 1,169.4 mm^3 | Median Tumour Volume (501 mel^Vemur cell line; days 0, 7 and 14, day 53): 1,262.1 mm^3 | Median Tumour Volume (501 mel^Vemur cell line; days 0, 7 and 14, day 56): 1,521.8 mm^3 | melanoma cell proliferation (melanoma cells [6]): significant inhibition | Median Tumour Volume ([7]; days 0, 7 and 14, day 0): 186.2 mm^3 | Median Tumour Volume ([7]; days 0, 7 and 14, day 2): 196.3 mm^3 | Median Tumour Volume ([7]; days 0, 7 and 14, day 4): 138.7 mm^3 | Median Tumour Volume ([7]; days 0, 7 and 14, day 7): 106.8 mm^3 | Median Tumour Volume ([7]; days 0, 7 and 14, day 9): 87.8 mm^3 | Median Tumour Volume ([7]; days 0, 7 and 14, day 11): 56 mm^3 | Median Tumour Volume ([7]; days 0, 7 and 14, day 14): 53.5 mm^3 | Median Tumour Volume ([7]; days 0, 7 and 14, day 16): 54.7 mm^3 | Median Tumour Volume ([7]; days 0, 7 and 14, day 18): 51.4 mm^3 | Median Tumour Volume ([7]; days 0, 7 and 14, day 21): 71.2 mm^3 | Median Tumour Volume ([7]; days 0, 7 and 14, day 23): 99.9 mm^3 | Median Tumour Volume ([7]; days 0, 7 and 14, day 25): 132 mm^3 | Median Tumour Volume ([7]; days 0, 7 and 14, day 28): 597.7 mm^3 | Median Tumour Volume ([7]; days 0, 7 and 14, day 30): 1,158.4 mm^3 | Median Tumour Volume ([7]; days 0, 7 and 14, day 32): 1,098.3 mm^3 | Median Tumour Volume ([7]; days 0, 7 and 14, day 35): 968.8 mm^3 | Median Tumour Volume ([7]; days 0, 7 and 14, day 37): 1,375.6 mm^3 | Median Tumour Volume ([8]; days 0, 7 and 14, day 0): 158.5 mm^3 | Median Tumour Volume ([8]; days 0, 7 and 14, day 3): 208.3 mm^3 | Median Tumour Volume ([8]; days 0, 7 and 14, day 5): 279.8 mm^3 | Median Tumour Volume ([8]; days 0, 7 and 14, day 7): 328.5 mm^3 | Median Tumour Volume ([8]; days 0, 7 and 14, day 10): 455.2 mm^3 | Median Tumour Volume ([8]; days 0, 7 and 14, day 12): 614.1 mm^3 | Median Tumour Volume ([8]; days 0, 7 and 14, day 14): 749.8 mm^3 | Median Tumour Volume ([8]; days 0, 7 and 14, day 17): 913 mm^3 | Median Tumour Volume ([8]; days 0, 7 and 14, day 19): 1,233 mm^3 | Median Tumour Volume ([8]; days 0, 7 and 14, day 21): 1,341.4 mm^3 | Median Tumour Volume ([8]; days 0, 7 and 14, day 24): 1,581.4 mm^3 | IC50 (IGR37): 0.84 nM
